Assay results taken from patent US20190382850A1, “METHOD FOR IDENTIFYING MITOCHONDRIAL DNA IN EXTRACELLULAR VESICLES AND TREATMENT OF MTDNA-RELATED DISORDERS AND CANCER” (Memorial Sloan-Kettering Cancer Center, priority 2017, published 2019).

Tests used:
MCF7 model metastases = assay: Metastatic assay: mastectomy followed by adjuvant HT in MCF7 tumor-bearing mice; type: in vivo; details: adjuvant tamoxifen after mastectomy, followed ~9 months
Method: (§1) FIG. 8 reports that OXPHOS inhibition abrogates HTR disease. (Panel a), Proliferation potential as determined by in vitro cell growth (CalceinAM) in luminal (ER+) and triple negative cancer cell lines cultured in media with increasing concentration of glucose. (Panel b), Oxygen consumption rates (OCR)±oligomycin (200 nM)/rotenone (100 nM) in MCF7 and MDA-MB-231 cells as determined by seahorse technology. (Panel c), Desmin immunohistochemical images of CAFs in HTS/HTR-derived tissues (scale bar 25 μm). (Panel d), Schematic analysis of the generation of metastatic HTR disease in mice. […] Metastatic burden was analyzed by BLI and at necropsy by histological examination (H&E). (Panel e), Proliferation potential in presence of oligomycin (100 nM) and ±HT as determined by in vitro BLI in metastatic cells from HTS and HTR cells FACS purified from xenografts (FIG. 2a). Error bars, mean±s.d. of BLI from n=3 samples. (Panel f), mtDNA/nDNA level in circulating EVs from HTR xenografts as determined by copy number (GAPDH, ND1: qPCR Fold change). Data are reported as error bars, mean±s.d. of n=3 independent experiments (a, e-g). *P<0.05 (Student's t-test) and GLM anova after multiple comparisons (a).
All cancer cell lines were engineered to express a GFP positive luciferase expression vector for in vitro and in vivo imaging studies. […] EV-number was determined by Nanosight. […]

Jak2 = assay: EV mtDNA copy number from CAFs in hypoxia reoxygenation ± Jak2 inhibitor; type: cell-based; details: 500 nM every 3 days, FIG. 14
Method: FIG. 14 reports that hypoxia reoxygenation culture condition increases EV mtDNA copy number in a Jak2-Stat(s) dependent manner. 10-cm plates with 10^6 cells (CAFs) were cultured in 1% O2 (hypoxia) for 4 days and 3 days in normal culture conditions (20% O2, hyperoxia) in presence/absence of Jak2 inhibitor (500 nM every 3 days). Conditioned media for EV isolation and DNA level from EVs was analyzed. As control, EVs from 20% O2, hyperoxia were also collected and analyzed. MtDNA as copy number is shown as bar graphs, mean±error bars of ND1 level obtained from EV-DNA (10 ng total DNA).

HTS cells = assay: Proliferation in presence of OXPHOS inhibitors ± HT; type: cell-based, human; details: with and without fulvestrant
Method: as §1, with “Error bars, mean±s.d. of BLI from n=3 samples.” left out, “Data are reported as error bars, mean±s.d. of n=3 independent experiments (a, e-g). *P<0.05 (Student's t-test) and GLM anova after multiple comparisons (a).” left out
For immunoblotting assays, cells were lysed in buffer (50 mmol/L Tris at pH 7.5, 150 mmol/L NaCl, 5 μg/mL aprotinin, pepstatin, 1% NP-40, lmmol/L EDTA, 0.25% deoxycholate, and protease inhibitor cocktail tablet, Sigma). […] The enrichment of CAFs in xenografts was determined by desmin immunohistochemistry (IHC) in tumor-derived sections. […]

mu-mtDNAhi HTR cells = assay: as above; type: cell-based, human; details: with and without fulvestrant; atovaquone 1 μM, rotenone 100 nM, oligomycin 200 nM; FIG. 2f, 8e
Description: (Panel a) Representative tumor growth kinetics (BLI) of GFP+/Luciferase+MCF7 xenografts (n=10) treated with weekly fulvestrant once mammary fat pad tumors were established (after 3 months) which led to a period (4 months) of disease stability on HT (HTS) followed by exponential growth on HT (HTR). Representative H&E images of tumors and primary cultures from unsorted as well as FACS purified cancer cells (GFP+/Epcam+) and murine CAFs (GFP−/Epcam). Scale bar 20 μm. (Panel b) OXPHOS potential in tumor-derived cancer cells (panel a) was measured±HT (fulvestrant, 10 μM) by Seahorse. […] (Panel d) Percentage of metastatic lesions isolated by FACS from tumor-bearing mice (n=8/group) expressing murine mtDNA as determined by ND1 qPCR (2 ng of total DNA). Oxygen consumption rates (OCR) in murine-mtDNApos and ctrl HTR cells determined by Seahorse. (Panel e) Murine mitochondrial RNA expression (12 genes: ND1, ND2, COX2, ATP8, ATP6, COX3, ND3, ND4L, ND4, ND5, ND6, CytB) as fold change (logioscale) determined by qRT-PCR in HTR and HTS cells (panel a). […]
FIG. 8 reports that OXPHOS inhibition abrogates HTR disease. (Panel a), Proliferation potential as determined by in vitro cell growth (CalceinAM) in luminal (ER+) and triple negative cancer cell lines cultured in media with increasing concentration of glucose. […]

SMILES | HT treated mice with no evidence of disease (MCF7 model metastases) [%] | HT treated mice with wide-spread (>20) HTR metastases involving multiple organs (MCF7 model metastases) [%] | generation of mtDNA high EVs (Jak2) | combined effect with HT on cell proliferation and/or cell death of HTS cells (HTS cells) | sensitivity of HTR cells to HT (proliferation) (mu-mtDNAhi HTR cells)
CC/C(=C(\c1ccccc1)c1ccc(OCCN(C)C)cc1)c1ccccc1 [tamoxifen] | 90 | 10 |  |  | 
Cc1cc(Nc2nc(N[C@@H](C)c3ncc(F)cn3)ncc2Cl)[nH]n1 [AZD 1490] |  |  | hampering the generation of mtDNA high EVs |  | 
CC[C@H]1/C=C/C=C/C[C@@H](C)[C@H](O)[C@@](C)(O)C(=O)[C@@H](C)[C@H](O)[C@@H](C)C(=O)[C@@H](C)[C@H](O)[C@@H](C)/C=C/C(=O)O[C@@H]2[C@H](C)[C@H](CC1)O[C@]1(CC[C@H](C)[C@H](C[C@@H](C)O)O1)[C@H]2C [oligomycin] |  |  |  | no synergistic effect | re-sensitized HTR cells to HT
C=C(C)[C@H]1Cc2c(ccc3c2O[C@@H]2COc4cc(OC)c(OC)cc4[C@@H]2C3=O)O1 [rotenone] |  |  |  | no synergistic effect | re-sensitized HTR cells to HT
